Measurements from paper PMC9338045, “An acquired phosphatidylinositol 4-phosphate transport initiates T-cell deterioration and leukemogenesis” (Nature Communications, 2022).
Where two headings read alike, the source gives them in different places.

Experiments:
OSBP = target: T1, OSBP (Homo sapiens, UniProt P22059); assay: SPR (Biacore 8K, protein immobilised on CM5 by amine coupling, kon/koff); type: binding
T1 construct: full-length cDNA in pGEX-4T-1, E. coli Rosetta(DE3), GST fusion, GST tag removed by thrombin
T1 sequence (P22059 1-807): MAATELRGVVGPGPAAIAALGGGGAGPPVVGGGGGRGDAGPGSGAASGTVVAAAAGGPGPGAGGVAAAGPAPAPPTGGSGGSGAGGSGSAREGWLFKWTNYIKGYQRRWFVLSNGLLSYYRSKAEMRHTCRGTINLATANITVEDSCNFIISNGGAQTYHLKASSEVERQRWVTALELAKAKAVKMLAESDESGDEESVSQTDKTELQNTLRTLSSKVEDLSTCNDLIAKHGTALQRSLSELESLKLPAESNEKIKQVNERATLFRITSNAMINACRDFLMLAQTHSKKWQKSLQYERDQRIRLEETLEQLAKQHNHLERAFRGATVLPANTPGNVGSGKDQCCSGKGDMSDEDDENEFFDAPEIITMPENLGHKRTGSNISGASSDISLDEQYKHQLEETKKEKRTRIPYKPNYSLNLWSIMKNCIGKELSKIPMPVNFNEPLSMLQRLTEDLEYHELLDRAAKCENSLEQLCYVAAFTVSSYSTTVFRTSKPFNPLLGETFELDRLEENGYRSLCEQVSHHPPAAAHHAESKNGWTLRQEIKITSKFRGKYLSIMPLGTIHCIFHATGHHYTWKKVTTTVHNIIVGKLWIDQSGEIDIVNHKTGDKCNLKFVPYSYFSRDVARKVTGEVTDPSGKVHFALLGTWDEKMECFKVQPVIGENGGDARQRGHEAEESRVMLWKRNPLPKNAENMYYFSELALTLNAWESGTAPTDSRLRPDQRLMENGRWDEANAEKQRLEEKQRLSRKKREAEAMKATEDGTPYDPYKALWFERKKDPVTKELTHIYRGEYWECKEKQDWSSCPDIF

ORP4L = target: T2, ORP4L (Homo sapiens, UniProt Q969R2); assay: as above; type: binding; settings: PBST pH 7.4, 25 °C; acyl chains of PI(4)P not told for this test (diC8 named only for the competition test)
T2 construct: gene OSBP2; full-length cDNA in pGEX-4T-1, E. coli Rosetta(DE3), GST fusion, GST tag removed by thrombin
T2 sequence (Q969R2 1-916): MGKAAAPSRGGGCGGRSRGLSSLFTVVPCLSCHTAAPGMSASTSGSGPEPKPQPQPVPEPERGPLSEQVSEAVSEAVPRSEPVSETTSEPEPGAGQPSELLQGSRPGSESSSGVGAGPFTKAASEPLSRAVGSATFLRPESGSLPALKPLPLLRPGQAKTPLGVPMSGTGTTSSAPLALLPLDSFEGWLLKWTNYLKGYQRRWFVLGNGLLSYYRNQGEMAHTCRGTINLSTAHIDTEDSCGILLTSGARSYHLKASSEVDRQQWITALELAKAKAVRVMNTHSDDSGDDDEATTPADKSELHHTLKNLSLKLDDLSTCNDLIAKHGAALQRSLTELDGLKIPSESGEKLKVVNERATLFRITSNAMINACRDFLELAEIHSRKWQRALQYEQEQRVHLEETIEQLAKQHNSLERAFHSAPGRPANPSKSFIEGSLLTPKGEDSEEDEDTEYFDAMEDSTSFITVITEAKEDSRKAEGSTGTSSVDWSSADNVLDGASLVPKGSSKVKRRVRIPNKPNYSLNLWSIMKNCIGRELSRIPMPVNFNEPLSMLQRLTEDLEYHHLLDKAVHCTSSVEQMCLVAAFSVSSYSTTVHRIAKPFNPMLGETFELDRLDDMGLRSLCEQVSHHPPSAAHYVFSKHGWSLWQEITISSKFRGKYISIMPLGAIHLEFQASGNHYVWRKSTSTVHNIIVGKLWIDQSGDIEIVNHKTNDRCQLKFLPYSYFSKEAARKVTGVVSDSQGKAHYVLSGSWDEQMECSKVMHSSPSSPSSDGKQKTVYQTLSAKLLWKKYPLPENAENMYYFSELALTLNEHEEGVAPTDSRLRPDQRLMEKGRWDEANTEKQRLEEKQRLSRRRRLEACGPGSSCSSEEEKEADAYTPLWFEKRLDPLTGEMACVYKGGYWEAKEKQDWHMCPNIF

Molecule	Kd (OSBP; PBST pH 7.4, 25 °C, acyl chains of PI(4)P not told for this test (diC8 named only for the competition test)) [µM]	Kd (ORP4L) [µM]	Kd (OSBP) [µM]
PI(4)P	4.3 ± 1.2	12.7 ± 2.1	–
COc1ccc(C(=O)O[C@H]2[C@H](O[C@@H]3[C@@H](OC(C)=O)[C@H](O[C@H]4C[C@H]5[C@@H]6CC=C7C[C@@H](O)CC[C@]7(C)[C@H]6CC[C@]5(C)[C@@]4(O)[C@H](C)C(=O)CCC(C)C)OC[C@@H]3O)OC[C@@H](O)[C@@H]2O)cc1 [OSW-1]	–	–	1.8 ± 0.37
